Assay results reported in patent US8748666B2, “Preparation methods of methyl-D3-amine and salts thereof” (Suzhou Zelgen Biopharmaceutical Co., Ltd., priority 2010, dated 2014).

Test system: human hepatocellular carcinoma SMMC-7721
Assay: Inhibition of tumor growth of human hepatocellular carcinoma SMMC-7721 in nude mice xenograft model
Assay type: in vivo, Balb/c nu/nu nude mice
Description: 70 Balb/c nu/nu nude mice, 6 weeks old, female, were bought from Shanghai Experimental Animal Resource Center (Shanghai B&K Universal Group Limited).
SMMC-7721 cells were commercially available from Shanghai Institutes for Biological Science, CAS (Shanghai, China).
The establishment of tumor nude mice xenograft model: SMMC-7721 cells in logarithmic growth period were cultured. After cell number was counted, the cells were suspended in 1×PBS, and the concentration of the cell suspension was adjusted to 1.5×10^7/ml. The tumor cells were inoculated under the skin of right armpit of nude mice with a 1 ml syringe, 3×10^6/0.2 ml/mice. 70 nude mice were inoculated in total.
When the tumor size reached 30-130 mm^3, 58 mice were divided randomly into the different groups. The difference of the mean value of tumor volume in each group was less than 10% and drugs were started to be administrated.
Animal body weight and tumor size were tested twice a week during the experiment. Clinical symptoms were recorded every day. At the end of the administration, the tumor size was recorded by taking pictures. One mouse was sacrificed in each group and tumor tissue was taken and fixed in 4% paraformaldehyde. Observation was continued after the administration, and when the mean size of tumor was larger than 2000 mm^3, or the dying status appeared, the animals were sacrificed, gross anatomy was conducted, and the tumor tissue was taken and fixed in 4% paraformaldehyde.
The formula for calculating the tumor volume (TV) is: TV=a×b^2/2, wherein a, b independently represent the length and the breadth of the tumor. The formula for calculating the relative tumor volume (RTV) is: RTV=Vt/V0, wherein V0 is the tumor volume at the beginning of the administration, and Vt is the […] when measured. The index for evaluating the antitumor activity is relative tumor increment rate T/C (%), and the formula is: T/C (%)=(TRTV/CRTV)×100%, wherein, TRTV is the RTV of the treatment group, and CRTV is the RTV of the negative control group.
Evaluation standard for efficacy: it is effective if the relative tumor increment rate T/C (%) is ≦40% and p<0.05 by statistics analysis.

[1] = 10 mg/kg po qd x 2 weeks, at the end of administration
[2] = 30 mg/kg po qd x 2 weeks, at the end of administration
[3] = 100 mg/kg po qd x 2 weeks, at the end of administration (day 15)

SMILES | relative tumor increment rate T/C % [1] | relative tumor increment rate T/C % [2] | relative tumor increment rate T/C % [3] | increase of relative value of tumor inhibition compared with CM4306 (32.2%/19.6%−1=64%) (100 mg/kg po qd x 2 weeks)
[2H]C([2H])([2H])NC(=O)c1cc(Oc2ccc(NC(=O)Nc3ccc(Cl)c(C(F)(F)F)c3)cc2)ccn1 [CM4306, 4-(4-(3-(4-chloro-3-(trifluoromethyl)phenyl)ureido)-phenoxy)-2-(N-methyl)picolinamide, reference compound] | 56.9% | 40.6% | 32.2% | –
[2H]C([2H])([2H])NC(=O)c1cc(Oc2ccc(NC(=O)Nc3ccc(Cl)c(C(F)(F)F)c3)cc2)ccn1 [CM4307, 4-(4-(3-(4-chloro-3-(trifluoromethyl)phenyl)ureido)-phenoxy)-N-(methyl-d3)picolinamide] | 53.6% | 40.8% | 19.6% | about 60%
